Assay [1] concerns IFNγ-induced NO production in RAW264.7 mouse macrophages. The assay is described as follows: Suppression of IFNγ-induced NO production in RAW264.7 (Griess, normalized to WST-1 viability). It is filed as cell-based. The note with it: RAW264.7, 2 h pre-treatment (0-200 nM dose range), IFNγ 24 h, normalized to cell viability. As for the experimental part:
On the next day, cells were pre-treated with DMSO or drug (0-200 nM dose range) for 2 hours, and then treated with recombinant mouse IFNγ (R&D Systems) for 24 hours. Nitric Oxide concentration in media was determined using the Griess reagent system (Promega). Cell viability was determined using WST-1 reagent (Roche). IC50 values were determined based on the suppression of IFNγ induced Nitric Oxide production normalized to cell viability.

For assay [2] the test system is unchanged. Nature of the assay: Nitric oxide production and cell viability protocol used for TX64343 (RAW264.7, Griess, Cell Titer-Glo). The note with it: slightly different assay procedure: DMEM+10% FBS, 0-30 μM or 0-3 μM dose range, IFNγ 24 h. In kind it is cell-based. The protocol: On the next day, cells were pre-treated with DMSO or drug (0-30 μM or 0-3 μM dose range) for 2 hours, and then treated with IFNγ for 24 hours. Nitric Oxide concentration in media was determined using the Griess reagent system (Promega). Cell viability was determined using Cell Titer-Glo (Promega). IC50 values were determined based on the suppression of IFNγ induced Nitric Oxide production.

Each structure is given as a SMILES string.

Turning to `COC(=O)[C@]12CCC(C)(C)C[C@H]1[C@H]1C(=O)C=C3[C@@]4(C)[C@H]5O[C@@]5(C#N)C(=O)C(C)(C)[C@@H]4CC[C@@]3(C)[C@]1(C)CC2` [TX63098], the IC50 in assay [1] was found to be 2.3 nM.

On to `CCNC(=O)[C@]12CCC(C)(C)C[C@H]1[C@H]1C(=O)C=C3[C@@]4(C)[C@H]5O[C@@]5(C#N)C(=O)C(C)(C)[C@@H]4CC[C@@]3(C)[C@]1(C)CC2` [TX63100], for which the IC50 in assay [1] is 23 nM.

In the case of `CC1(C)CC[C@]2(C(=O)NCC(F)(F)F)CC[C@]3(C)[C@H](C(=O)C=C4[C@@]5(C)[C@H]6O[C@@]6(C#N)C(=O)C(C)(C)[C@@H]5CC[C@]43C)[C@@H]2C1` [TX63158], the IC50 in assay [1] came out at 16 nM.

For `CC1(C)CC[C@]2(C(=O)O)CC[C@]3(C)[C@H](C(=O)C=C4[C@@]5(C)[C@H]6O[C@@]6(C#N)C(=O)C(C)(C)[C@@H]5CC[C@]43C)[C@@H]2C1` [TX63160], the IC50 in assay [1] turned out to be 30 nM.

Consider `COC(=O)[C@]12CCC(C)(C)C[C@H]1[C@H]1C(=O)C[C@@H]3[C@@]4(C)[C@H]5O[C@@]5(C#N)C(=O)C(C)(C)[C@@H]4CC[C@@]3(C)[C@]1(C)CC2` [TX63210], for which, in assay [1], the IC50 is 44 nM.

For `COC(=O)[C@]12CCC(C)(C)C[C@H]1[C@H]1C(=O)C=C3[C@@]4(C)[C@H]5O[C@H]5C(=O)C(C)(C)[C@@H]4CC[C@@]3(C)[C@]1(C)CC2` [TX63211], the IC50 in assay [1] is over 200 nM.

`COC(=O)[C@]12CCC(C)(C)C[C@H]1[C@H]1C(=O)C=C3[C@]4(C)[C@@H](CC[C@@]3(C)[C@]1(C)CC2)C(C)(C)C(=O)[C@@]1(C#N)O[C@@H]41` [TX63212]: the IC50 in assay [1] amounted to 1.6 nM.

As for `CC1(C)CC[C@]2(C(=O)NCC(F)(F)F)CC[C@]3(C)[C@H](C(=O)C[C@@H]4[C@@]5(C)[C@H]6O[C@@]6(C#N)C(=O)C(C)(C)[C@@H]5CC[C@]43C)[C@@H]2C1` [TX63241], in assay [1], the IC50 was over 200 nM.

With `COC(=O)[C@]12CCC(C)(C)C[C@H]1[C@H]1C(=O)C=C3[C@]4(C)[C@@H](CC[C@@]3(C)[C@]1(C)CC2)C(C)(C)C(=O)[C@]1(C(N)=O)O[C@@H]14` [TX63315], the IC50 in assay [1] was over 200 nM.

As for `COC(=O)[C@]12CCC(C)(C)C[C@H]1[C@H]1C(=O)C=C3[C@@]4(C)[C@H]5O[C@@]5(Br)C(=O)C(C)(C)[C@@H]4CC[C@@]3(C)[C@]1(C)CC2` [TX63392], the IC50 in assay [1] was over 200 nM.

As for `CC1(C)CC[C@]2(CO)CC[C@]3(C)[C@H](C(=O)C=C4[C@@]5(C)[C@H]6O[C@@]6(C#N)C(=O)C(C)(C)[C@@H]5CC[C@]43C)[C@@H]2C1` [TX63537], the IC50 in assay [1] was 1.5 nM.

`CC[C@]12CCC(C)(C)C[C@H]1[C@H]1C(=O)C=C3[C@@]4(C)[C@H]5O[C@@]5(C#N)C(=O)C(C)(C)[C@@H]4CC[C@@]3(C)[C@]1(C)CC2` [TX63539]: the IC50 in assay [1] amounted to 14 nM.

For the compound `CC1(C)CC[C@]2(NC(=O)C(C)(F)F)CC[C@]3(C)[C@H](C(=O)C=C4[C@@]5(C)[C@H]6O[C@@]6(C#N)C(=O)C(C)(C)[C@@H]5CC[C@]43C)[C@@H]2C1` [TX63647], the IC50 in assay [1] was determined as 15 nM.

With `COC(=O)N[C@]12CCC(C)(C)C[C@H]1[C@H]1C(=O)C=C3[C@@]4(C)[C@H]5O[C@@]5(C#N)C(=O)C(C)(C)[C@@H]4CC[C@@]3(C)[C@]1(C)CC2` [TX63654], the IC50 in assay [1] amounted to 6.5 nM.

For the compound `COC(=O)[C@]12CCC(C)(C)C[C@H]1[C@H]1C(=O)C[C@@H]3[C@@]4(C)[C@H]5O[C@@]5(C#N)C(=O)[C@@H](C)[C@@H]4CC[C@@]3(C)[C@]1(C)CC2` [TX63813], in assay [1], the IC50 is 6.6 nM.

`CN(C)C(=O)N[C@]12CCC(C)(C)C[C@H]1[C@H]1C(=O)C=C3[C@@]4(C)[C@H]5O[C@@]5(C#N)C(=O)C(C)(C)[C@@H]4CC[C@@]3(C)[C@]1(C)CC2` [TX63924]: the IC50 in assay [1] turned out to be 45 nM.

On to `C[C@@H]1C(=O)[C@]2(C#N)O[C@@H]2[C@]2(C)C3=CC(=O)[C@@H]4[C@@H]5CC(C)(C)CC[C@]5(NC(=O)C(C)(F)F)CC[C@@]4(C)[C@]3(C)CC[C@@H]12` [TX63946], for which the IC50 in assay [1] was found to be 0.6 nM.

`Cc1nnc([C@]23CCC(C)(C)C[C@H]2[C@H]2C(=O)C=C4[C@@]5(C)[C@H]6O[C@@]6(C#N)C(=O)C(C)(C)[C@@H]5CC[C@@]4(C)[C@]2(C)CC3)o1` [TX63947]: the 50% inhibitory concentration (IC50) in assay [1] is 2.5 nM.

With `CC1(C)CC[C@]2(C(=O)n3ccnc3)CC[C@]3(C)[C@H](C(=O)C=C4[C@@]5(C)[C@H]6O[C@@]6(C#N)C(=O)C(C)(C)[C@@H]5CC[C@]43C)[C@@H]2C1` [TX63960], in assay [1], the 50% inhibitory concentration (IC50) was 2.9 nM.

Take `CCNC(=O)[C@]12CCC(C)(C)C[C@H]1[C@H]1C(=O)C=C3[C@@]4(C)[C@H]5O[C@@]5(C#N)C(=O)[C@@H](C)[C@@H]4CC[C@@]3(C)[C@]1(C)CC2` [TX63962]: the IC50 in assay [1] was found to be 1.1 nM.

Consider `CC1(C)CC[C@]2(CO)CC[C@]3(C)[C@H](C(=O)C[C@@H]4[C@@]5(C)[C@H]6O[C@@]6(C#N)C(=O)C(C)(C)[C@@H]5CC[C@]43C)[C@@H]2C1` [TX63966], for which the concentration for half-maximal inhibition (IC50) in assay [1] was 52 nM.

Turning to `CC1(C)CC[C@]2(C#N)CC[C@]3(C)[C@H](C(=O)C[C@@H]4[C@@]5(C)[C@H]6O[C@@]6(C#N)C(=O)C(C)(C)[C@@H]5CC[C@]43C)[C@@H]2C1` [TX63967], the concentration for half-maximal inhibition (IC50) in assay [1] is 24 nM.

In the case of `CNC(=O)CC[C@]12CCC(C)(C)C[C@H]1[C@H]1C(=O)C=C3[C@@]4(C)[C@H]5O[C@@]5(C#N)C(=O)C(C)(C)[C@@H]4CC[C@@]3(C)[C@]1(C)CC2` [TX64343], in assay [2], the half-inhibitory concentration (IC50) stood at 20.1 nM.

By IC50 is commonly meant the concentration at which inhibition is half-maximal.
